Experimental data: patent US10969389B2, “Method to monitor and quantify interphase nuclear envelope rupture events” (INSTITUT CURIE, priority 2016, dated 2021)

System: RPE1 cells
Experiment: Cell death after passing a constriction in micro-channels, with DNA repair inhibited by ATMi
Format: cell-based
Settings: ATMi 10 μM
Description: Micro-channels were prepared as previously described (Heuzé M L et al, 2011, 769, pp. 415-434). Briefly, polydimethylsiloxane (PDMS) (GE Silicones) was used to prepare 7 μm wide and 5 μm high micro-channels with constrictions of varying lengths and widths from a self-made mold. For HeLa cells, larger channels of 12 μm width and 5 μm height were used because of their larger nuclei. Channels with constrictions were incubated with 15 μg/mL of fibronectin for 30 min then washed with PBS at least 3 times and finally incubated with medium (containing drugs if necessary) for at least 5 hours before adding cells. Not that the height inside constriction varied depending on the width: height was 2 μm for 1.5 μm wide constrictions, 3.5 μm for 2 μm wide constrictions, 4 μm for 3 μm and 4 μm wide constrictions, and 5 μm for 5 μm wide constrictions.
siRNA 5′-AAAGCAUGGACGAUCAGGAAG-3′ (SEQ ID NO: 6) was used to deplete CHMP3 (Jimenez Science 2014), SMARTpool for SUN1 and SUN2 (Dharmacon, GE LifeSciences), both 5′-GGUGGUGACGAUCUGGGCU-3′ (SEQ ID NO: 7); and 5′-[…]-3′(SEQ ID NO: 8) to target LMNA. Non-targeting siRNA (Dharmacon, GE Life Technologies) was used as the control. siRNA was transfected with Lipofectamine RNAiMAX (Invitrogen). Cells were transfected with 120 nM siRNA 48 h and again 24 h before the experiment.
For immunofluorescence, secondary antibodies anti-mouse-Alexa488 and anti-Goat-Alexa488 (Jackson ImmunoResearch Laboratories) were used. ATMi (KU-55933, TOCRIS) was used at 10 μM to inhibit DNA repair.
The inventors hypothesized that efficient resealing was responsible for the high survival rate of cells passing through constrictions. The inventors thus quantified the occurrence of cell death after passage through a single constriction in RPE1 cells either depleted for LMNA/C, or for CHMP3. As expected from previous work by others, the inventors found a dramatic increase in death in LMNA/C-depleted cells (FIG. 4A), even inside straight channels, but stronger when cells were passing constrictions where the NE ruptured for longer periods of time.
The inventors therefore hypothesized that the cell death observed upon migration through constrictions in LMNA/C-depleted cells could be caused by a defect in DNA repair combined with a high degree of DNA damage due to prolonged nuclear envelope opening. To test this hypothesis, the inventors inhibited DNA repair using an ATM inhibitor (ATMi, Fig S4E; 22), in control cells and in cells depleted for LMNA/C, or CHMP3.

For O=c1cc(-c2cccc3c2Sc2ccccc2S3)oc(N2CCOCC2)c1 [ATMi, KU-55933], the “level of cell death” value (CHMP3-depleted RPE1 cells migrating through constrictions) was “about 30%”, the “level of cell death” value (CHMP3-depleted RPE1 cells that did not migrate through constrictions) was “no effect” and the “level of cell death” value (LMNA/C-depleted RPE1 cells) was “further increased”. The “level of cell death” value (control RPE1 cells) was “no effect”.
